Assay results: PubChem BioAssay AID1996
In brackets after ≈: the same amount, converted by molar mass.

conditions: buffer; pH 7.4; 200.0 µM

**Q.** For CCOc1ccc(NC(C)=O)cc1[N+](=O)[O-], which solubility kinetic is on record?
**A.** > 33.6 µg/mL

**Q.** Which solubility kinetic does the source give for O=C(NCc1cccnc1)Nc1ccc(Br)cc1Cl here?
**A.** 19.2 µg/mL (≈ 56.4 µM)

**Q.** For N#C/C(=C/Nc1ccccc1F)S(=O)(=O)c1ccc(Cl)cc1, which solubility kinetic is on record?
**A.** 2.1 µg/mL (≈ 6.24 µM)

**Q.** Which solubility kinetic does the source give for CC1(NC(=O)Nc2ccccc2)CCS(=O)(=O)C1 (stereo not given) here?
**A.** > 40.2 µg/mL

**Q.** With CCN(CC)c1ccc(N=Cc2c(O)n(CCc3ccc(OC)c(OC)c3)c(=O)[nH]c2=O)cc1 as the compound, how does the solubility kinetic read?
**A.** 9.5 µg/mL (≈ 20.4 µM)

**Q.** Which solubility kinetic does the source give for CN1CCC(N(C)S(=O)(=O)c2ccc(Cl)cc2)CC1 here?
**A.** > 45.4 µg/mL

**Q.** Which solubility kinetic does the source give for NS(=O)(=O)c1ccc(NC2=CC(=O)C(=O)c3ccccc32)cc1 here?
**A.** 13.6 µg/mL (≈ 41.4 µM)

**Q.** Which solubility kinetic does the source give for CC(C)c1cc(C(C)C)c(S(=O)(=O)N2CCNCC2)c(C(C)C)c1 here?
**A.** 39.3 µg/mL (≈ 111 µM)

**Q.** With CCO.N#CC1=C(N)Oc2c(oc(CO)cc2=O)C1c1ccccc1[N+](=O)[O-] (stereo not given) as the compound, how does the solubility kinetic read?
**A.** 45.9 µg/mL

**Q.** For O=C(CCl)N1CCN(C(=O)C2COc3ccccc3O2)CC1 (stereo not given), which solubility kinetic is on record?
**A.** > 48.7 µg/mL

**Q.** With CN(C(=O)COc1ncnc2ccccc12)C1CCCCC1 as the compound, how does the solubility kinetic read?
**A.** 39 µg/mL (≈ 130 µM)

**Q.** For Cc1ccc(CSCC(=O)NCc2ccco2)cc1, which solubility kinetic is on record?
**A.** 36.8 µg/mL (≈ 134 µM)

**Q.** With CCOC(=O)c1ccc2nc(C)c(C)nc2c1 as the compound, how does the solubility kinetic read?
**A.** 31.3 µg/mL (≈ 136 µM)

**Q.** With COc1ccc(C(=O)N2CCC(C(=O)Nc3ccc(C)cc3)CC2)cc1 as the compound, how does the solubility kinetic read?
**A.** > 52.9 µg/mL

**Q.** For Cc1nc2ccc(NC(=S)NC3CCCCC3)cc2nc1C, which solubility kinetic is on record?
**A.** > 47.2 µg/mL

**Q.** Which solubility kinetic does the source give for Clc1ccc(-c2nc3ccccc3[nH]2)cn1 here?
**A.** 31.8 µg/mL (≈ 138 µM)

**Q.** With Cc1cc(S(=O)(=O)Nc2nc(CN3CCOCC3)nc3sc4c(c23)CCC4)ccc1F as the compound, how does the solubility kinetic read?
**A.** 67.4 µg/mL (≈ 146 µM)

**Q.** For CC(C)(C)S(=O)(=O)/C(C#N)=C/Nc1ccccn1, which solubility kinetic is on record?
**A.** > 39.8 µg/mL

**Q.** For O=C(O)C(=O)O.c1ccc2c(CCNC3CCCCC3)c[nH]c2c1, which solubility kinetic is on record?
**A.** > 49.9 µg/mL

**Q.** For O=C1NC(=S)N/C1=C/c1cccc2ccccc12, which solubility kinetic is on record?
**A.** 1.7 µg/mL (≈ 6.68 µM)

**Q.** Which solubility kinetic does the source give for COc1cccc(OCC(=O)NCC2CCCO2)c1 (stereo not given) here?
**A.** > 39.8 µg/mL

**Q.** With Cc1cc(F)ccc1NC(=O)C1CCCO1 (stereo not given) as the compound, how does the solubility kinetic read?
**A.** 33.3 µg/mL (≈ 149 µM)

**Q.** Which solubility kinetic does the source give for CCc1ccc(S(=O)(=O)Nc2nccs2)cc1 here?
**A.** 27.5 µg/mL (≈ 102 µM)

**Q.** For O=C1/C(=C\c2ccncc2)N2CCC1CC2, which solubility kinetic is on record?
**A.** > 32.1 µg/mL

**Q.** Which solubility kinetic does the source give for N/C(=N\OC(=O)c1ccccc1F)c1cccc([N+](=O)[O-])c1 here?
**A.** 2.1 µg/mL (≈ 6.93 µM)

**Q.** With COc1cccc(NC(=O)C2CCOC2=O)c1 (stereo not given) as the compound, how does the solubility kinetic read?
**A.** > 35.3 µg/mL

**Q.** For O=Cc1ccnc(-c2ccc(OC(=O)c3ccco3)cc2)n1, which solubility kinetic is on record?
**A.** 33.1 µg/mL (≈ 113 µM)

**Q.** Which solubility kinetic does the source give for Cc1ccc(C)c(NC(=S)Nc2cccnc2)c1 here?
**A.** > 38.6 µg/mL

**Q.** Which solubility kinetic does the source give for Cc1ccnc(NC(=O)CCC(=O)c2cc(C)sc2C)c1 here?
**A.** 3.7 µg/mL (≈ 12.2 µM)

**Q.** With CC(=O)Nc1ccc(NS(=O)(=O)c2ccc(C)cc2)c([N+](=O)[O-])c1 as the compound, how does the solubility kinetic read?
**A.** > 52.4 µg/mL

**Q.** For CC1CCCC(NC(=O)COC(=O)c2cccs2)C1C (stereo not given), which solubility kinetic is on record?
**A.** 43.1 µg/mL (≈ 146 µM)

**Q.** For COc1ccc(NC(=S)N2CCN(C)CC2)cc1, which solubility kinetic is on record?
**A.** > 39.8 µg/mL

**Q.** With Cc1cccc(NC(=O)N2C[C@H]3C[C@@H](C2)c2cccc(=O)n2C3)c1 as the compound, how does the solubility kinetic read?
**A.** > 48.5 µg/mL

**Q.** For Cc1ccc2nc(/N=C(\N)NC(=O)NC3CCCCC3)nc(C)c2c1, which solubility kinetic is on record?
**A.** 8 µg/mL (≈ 23.5 µM)

**Q.** With COc1ccc(Br)cc1C(=O)Nc1cccc2ncccc12 as the compound, how does the solubility kinetic read?
**A.** 1.7 µg/mL (≈ 4.76 µM)

**Q.** For O=C(COC(=O)c1cccnc1Cl)Nc1cccc(S(=O)(=O)N2CCOCC2)c1, which solubility kinetic is on record?
**A.** > 66 µg/mL

**Q.** For CCOC(=O)C1CCCN(C(=O)c2cc3cc(F)ccc3[nH]2)C1 (stereo not given), which solubility kinetic is on record?
**A.** 23.9 µg/mL (≈ 75.1 µM)

**Q.** For O=C(Nc1ccc2[nH]c(=O)[nH]c2c1)c1ccc([N+](=O)[O-])o1, which solubility kinetic is on record?
**A.** 15.6 µg/mL (≈ 54.1 µM)

**Q.** With COc1ccc(NC(=O)c2ccc(Oc3ncccn3)cc2)cc1 as the compound, how does the solubility kinetic read?
**A.** 10.6 µg/mL (≈ 33 µM)

**Q.** Which solubility kinetic does the source give for CCCCC(=O)Nc1ccccc1N1CCN(c2ccc(F)cc2)CC1 here?
**A.** 4.3 µg/mL (≈ 12.1 µM)

**Q.** Which solubility kinetic does the source give for O=C(Nc1nccs1)c1ncc(Cl)c(Cl)c1Cl here?
**A.** 12.5 µg/mL (≈ 40.5 µM)

**Q.** With C=CCn1cc(/C=C2/NC(=O)NC2=O)c2ccccc21 as the compound, how does the solubility kinetic read?
**A.** 1 µg/mL (≈ 3.74 µM)

**Q.** With O=C(COc1ccccc1)OCC(=O)c1c[nH]c2ccccc12 as the compound, how does the solubility kinetic read?
**A.** 8.9 µg/mL (≈ 28.8 µM)

**Q.** For COc1ccccc1NC(=O)c1ccc2nc(C)c(C)nc2c1, which solubility kinetic is on record?
**A.** 16.3 µg/mL (≈ 53 µM)

**Q.** With COc1ccc2nc(C)c(C(N)=O)cc2c1 as the compound, how does the solubility kinetic read?
**A.** > 32.4 µg/mL

**Q.** With O=C(Nc1ccc(F)cc1)c1cc2c(s1)CCCC2 as the compound, how does the solubility kinetic read?
**A.** < 0.6 µg/mL

**Q.** For Cc1ccc2cc(C#N)c(N3CCN(C(=O)c4ccccc4)CC3)nc2c1, which solubility kinetic is on record?
**A.** 4.1 µg/mL (≈ 11.5 µM)

**Q.** With O=C(O)c1csc(-c2ccccc2)n1 as the compound, how does the solubility kinetic read?
**A.** 28.2 µg/mL (≈ 137 µM)

**Q.** For Cc1ccc(N2C(=O)CN(Cc3ccccc3)C2=S)cc1C, which solubility kinetic is on record?
**A.** 0.3 µg/mL (≈ 0.966 µM)

**Q.** For Cc1ccc(S(=O)(=O)N(C)CC(=O)OCC(=O)c2ccc3c(c2)NC(=O)CO3)cc1, which solubility kinetic is on record?
**A.** 25 µg/mL (≈ 57.8 µM)

**Q.** Which solubility kinetic does the source give for O=[N+]([O-])c1ccccc1S(=O)(=O)NCCc1ccncc1 here?
**A.** 43.8 µg/mL (≈ 143 µM)

**Q.** For CCc1ccc(CCC(=O)Nc2ccc(C(=O)O)cc2)o1, which solubility kinetic is on record?
**A.** > 43.1 µg/mL

**Q.** For O=C(c1cc2cc(F)ccc2[nH]1)N1CCN(c2ccc(F)cc2)CC1, which solubility kinetic is on record?
**A.** 0.3 µg/mL (≈ 0.879 µM)

**Q.** With O=C(NCCCN1CCOCC1)C(=O)NCc1ccc(Cl)cc1 as the compound, how does the solubility kinetic read?
**A.** > 51 µg/mL

**Q.** With CC(=O)c1ccc(N=C2C(=O)Nc3ccccc32)cc1 as the compound, how does the solubility kinetic read?
**A.** 36.6 µg/mL (≈ 138 µM)

**Q.** With O=C(CN1C(=O)NC2(CCCCC2)C1=O)NCCc1ccccc1 as the compound, how does the solubility kinetic read?
**A.** > 49.4 µg/mL

**Q.** For COc1cc(C)nc(NC(=S)N(C)C(=O)c2ccccc2)n1, which solubility kinetic is on record?
**A.** 0.5 µg/mL (≈ 1.58 µM)

**Q.** Which solubility kinetic does the source give for O=C(O)C1CCC(N2C(=O)c3cccc([N+](=O)[O-])c3C2=O)CC1 (stereo not given) here?
**A.** > 47.7 µg/mL

**Q.** For O=S(=O)(NCCCN1CCOCC1)c1ccc(Cl)cc1, which solubility kinetic is on record?
**A.** > 47.8 µg/mL

**Q.** For COc1ccc(C2(CNC(=O)c3cccs3)CCOCC2)cc1, which solubility kinetic is on record?
**A.** 48.6 µg/mL (≈ 147 µM)
